Test results as given in ChEMBL document CHEMBL5137094, “Construction of Covalent Bisubstrate Inhibitor of Protein Kinase Reacting with Cysteine Residue at Substrate-Binding Site” (J Med Chem, 2022).
The source made the active and inactive calls. The rule behind the calls is not given here.

Tests used:
[1] = molecular target: T1, cAMP-dependent protein kinase catalytic subunit alpha (Homo sapiens, UniProt P17612); assay: Inhibition of ARC-1063 fluorescent probe binding to recombinant human PKAC-alpha incubated for 1 hr by time-gated luminescence intensity based displacement assay
[2] = molecular target: T1, cAMP-dependent protein kinase catalytic subunit alpha; assay: Displacement of ARC-1063 fluorescent probe from recombinant human PKAC-alpha assessed as dissociation equilibrium constant preincubated for 1 hr followed by photoluminescent probe addition by time-gated luminescence intensity based assay
[3] = molecular target: T1, cAMP-dependent protein kinase catalytic subunit alpha; assay: Displacement of ARC-1063 fluorescent probe from recombinant human PKAC-alpha assessed as dissociation half life preincubated for 1 hr followed by photoluminescent probe addition by time-gated luminescence intensity based assay
[4] = molecular target: T1, cAMP-dependent protein kinase catalytic subunit alpha; assay: Displacement of ARC-1063 fluorescent probe from recombinant human PKAC-alpha assessed as binding constant (kon) preincubated for 1 hr followed by photoluminescent probe addition by time-gated luminescence intensity based assay
[5] = molecular target: T1, cAMP-dependent protein kinase catalytic subunit alpha; assay: Binding affinity to human recombinant PKAC-alpha assessed as reduction in TGLI signal at 10 uM pretreated with compound followed by ARC-1063 fluorescent probe addition by time-gated luminescence intensity based displacement assay; conditions: time 60-480 min, TDE = time-dependent effect
[6] = molecular target: T1, cAMP-dependent protein kinase catalytic subunit alpha; assay: Binding affinity to human recombinant PKAC-alpha assessed as inactivation constant incubated for 1 hr by time-gated luminescence intensity based displacement assay
[7] = molecular target: T1, cAMP-dependent protein kinase catalytic subunit alpha; assay: Binding affinity to human recombinant PKAC-alpha assessed as inactivation constant measured upto 60 mins by Western blot analysis
[8] = molecular target: T1, cAMP-dependent protein kinase catalytic subunit alpha; assay: Covalent inhibition of human recombinant PKAC-alpha assessed as inhibition constant
[9] = molecular target: T1, cAMP-dependent protein kinase catalytic subunit alpha; assay: Binding affinity to human recombinant PKACalpha assessed as compound-protein adduct formation by measuring half life at 30 degreeC
[10] = molecular target: T1, cAMP-dependent protein kinase catalytic subunit alpha; assay: Inhibition of recombinant human PKAC-alpha assessed as residual activity at 0.1 uM in presence of ATP by radiometric filter-binding assay relative to control
[11] = molecular target: Rho-associated protein kinase 2 (Homo sapiens) (UniProt O75116); assay: Inhibition of recombinant human GST-tagged ROCK-2 catalytic domain (1 to 552 residues) assessed as residual activity at 0.1 uM in presence of ATP by radiometric filter-binding assay relative to control
Chain of Rho-associated protein kinase 2 (Homo sapiens) (O75116 whole entry, looked up, the tested form may be a part): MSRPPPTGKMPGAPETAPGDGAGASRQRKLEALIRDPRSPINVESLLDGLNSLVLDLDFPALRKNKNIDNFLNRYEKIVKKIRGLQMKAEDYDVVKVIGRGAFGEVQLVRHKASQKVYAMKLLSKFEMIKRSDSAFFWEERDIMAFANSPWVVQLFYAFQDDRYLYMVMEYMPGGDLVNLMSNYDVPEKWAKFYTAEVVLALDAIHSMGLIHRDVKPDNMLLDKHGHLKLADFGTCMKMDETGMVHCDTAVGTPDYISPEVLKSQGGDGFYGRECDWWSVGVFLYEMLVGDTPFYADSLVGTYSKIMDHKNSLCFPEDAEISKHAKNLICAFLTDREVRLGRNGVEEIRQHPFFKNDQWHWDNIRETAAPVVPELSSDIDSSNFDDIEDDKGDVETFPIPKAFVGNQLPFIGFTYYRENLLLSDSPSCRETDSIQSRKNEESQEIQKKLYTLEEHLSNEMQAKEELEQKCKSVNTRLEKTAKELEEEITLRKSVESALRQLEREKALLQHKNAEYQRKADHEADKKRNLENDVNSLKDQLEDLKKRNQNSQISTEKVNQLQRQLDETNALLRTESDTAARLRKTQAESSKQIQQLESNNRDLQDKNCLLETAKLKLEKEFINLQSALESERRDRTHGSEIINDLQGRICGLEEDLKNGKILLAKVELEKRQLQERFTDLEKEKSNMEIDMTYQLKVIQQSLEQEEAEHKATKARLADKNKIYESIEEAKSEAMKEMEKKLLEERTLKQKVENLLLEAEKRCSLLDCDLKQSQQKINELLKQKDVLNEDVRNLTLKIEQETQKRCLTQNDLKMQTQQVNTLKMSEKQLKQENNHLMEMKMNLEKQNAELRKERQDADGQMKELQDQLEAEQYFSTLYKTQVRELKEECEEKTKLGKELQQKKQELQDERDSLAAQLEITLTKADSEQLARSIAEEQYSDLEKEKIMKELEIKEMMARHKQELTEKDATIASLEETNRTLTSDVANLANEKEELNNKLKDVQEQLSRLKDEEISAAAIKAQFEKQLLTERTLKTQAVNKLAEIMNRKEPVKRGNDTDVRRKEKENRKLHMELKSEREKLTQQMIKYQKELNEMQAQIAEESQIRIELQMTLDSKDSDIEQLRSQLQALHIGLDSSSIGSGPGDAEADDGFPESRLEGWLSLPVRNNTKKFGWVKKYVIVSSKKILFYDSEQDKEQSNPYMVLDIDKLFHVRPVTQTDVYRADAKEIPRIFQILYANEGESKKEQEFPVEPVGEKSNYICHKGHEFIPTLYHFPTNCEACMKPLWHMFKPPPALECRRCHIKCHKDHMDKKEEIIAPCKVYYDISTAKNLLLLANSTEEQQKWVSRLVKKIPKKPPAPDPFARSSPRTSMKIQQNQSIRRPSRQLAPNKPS

[12] = molecular target: RAC-alpha serine/threonine-protein kinase (Homo sapiens) (UniProt P31749); assay: Inhibition of human PKBalpha assessed as residual activity at 0.1 uM in presence of ATP by radiometric filter-binding assay relative to control
Chain of RAC-alpha serine/threonine-protein kinase (Homo sapiens) (P31749 whole entry): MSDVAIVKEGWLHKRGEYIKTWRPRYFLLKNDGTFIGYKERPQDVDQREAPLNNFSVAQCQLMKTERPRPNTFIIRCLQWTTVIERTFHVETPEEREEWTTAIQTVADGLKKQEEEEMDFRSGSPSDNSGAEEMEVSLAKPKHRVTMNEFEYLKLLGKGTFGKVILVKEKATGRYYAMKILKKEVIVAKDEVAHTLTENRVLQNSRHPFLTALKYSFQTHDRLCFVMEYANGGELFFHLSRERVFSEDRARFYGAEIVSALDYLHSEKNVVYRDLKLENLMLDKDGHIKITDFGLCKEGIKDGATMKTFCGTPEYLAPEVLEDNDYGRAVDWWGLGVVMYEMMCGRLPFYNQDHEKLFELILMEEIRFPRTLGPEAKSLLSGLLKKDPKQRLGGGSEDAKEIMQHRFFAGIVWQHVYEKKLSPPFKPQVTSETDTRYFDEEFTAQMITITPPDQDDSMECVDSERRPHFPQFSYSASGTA

[13] = molecular target: RAC-beta serine/threonine-protein kinase (Homo sapiens) (UniProt P31751); assay: Inhibition of human PKB-beta assessed as residual activity at 0.1 uM in presence of ATP by radiometric filter-binding assay relative to control
Chain of RAC-beta serine/threonine-protein kinase (Homo sapiens) (P31751 whole entry): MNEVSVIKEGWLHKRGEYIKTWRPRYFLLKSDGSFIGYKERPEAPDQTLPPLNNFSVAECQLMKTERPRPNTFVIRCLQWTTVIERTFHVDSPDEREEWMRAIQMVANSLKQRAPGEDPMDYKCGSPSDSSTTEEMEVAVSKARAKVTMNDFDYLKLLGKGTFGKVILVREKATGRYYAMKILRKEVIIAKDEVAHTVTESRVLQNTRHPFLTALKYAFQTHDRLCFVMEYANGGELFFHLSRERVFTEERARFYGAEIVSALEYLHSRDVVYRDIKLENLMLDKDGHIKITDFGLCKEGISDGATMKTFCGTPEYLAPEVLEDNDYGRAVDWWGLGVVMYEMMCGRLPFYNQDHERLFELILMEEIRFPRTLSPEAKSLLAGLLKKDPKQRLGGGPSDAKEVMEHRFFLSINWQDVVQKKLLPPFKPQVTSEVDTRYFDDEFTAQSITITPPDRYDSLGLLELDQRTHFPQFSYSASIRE

[14] = molecular target: Ribosomal protein S6 kinase alpha-5 (Homo sapiens) (UniProt O75582); assay: Inhibition of N-terminal 6His-tagged recombinant human spiked MSK1 (2 to end residues) assessed as residual activity relative to control
Chain of Ribosomal protein S6 kinase alpha-5 (Homo sapiens) (O75582 whole entry, looked up): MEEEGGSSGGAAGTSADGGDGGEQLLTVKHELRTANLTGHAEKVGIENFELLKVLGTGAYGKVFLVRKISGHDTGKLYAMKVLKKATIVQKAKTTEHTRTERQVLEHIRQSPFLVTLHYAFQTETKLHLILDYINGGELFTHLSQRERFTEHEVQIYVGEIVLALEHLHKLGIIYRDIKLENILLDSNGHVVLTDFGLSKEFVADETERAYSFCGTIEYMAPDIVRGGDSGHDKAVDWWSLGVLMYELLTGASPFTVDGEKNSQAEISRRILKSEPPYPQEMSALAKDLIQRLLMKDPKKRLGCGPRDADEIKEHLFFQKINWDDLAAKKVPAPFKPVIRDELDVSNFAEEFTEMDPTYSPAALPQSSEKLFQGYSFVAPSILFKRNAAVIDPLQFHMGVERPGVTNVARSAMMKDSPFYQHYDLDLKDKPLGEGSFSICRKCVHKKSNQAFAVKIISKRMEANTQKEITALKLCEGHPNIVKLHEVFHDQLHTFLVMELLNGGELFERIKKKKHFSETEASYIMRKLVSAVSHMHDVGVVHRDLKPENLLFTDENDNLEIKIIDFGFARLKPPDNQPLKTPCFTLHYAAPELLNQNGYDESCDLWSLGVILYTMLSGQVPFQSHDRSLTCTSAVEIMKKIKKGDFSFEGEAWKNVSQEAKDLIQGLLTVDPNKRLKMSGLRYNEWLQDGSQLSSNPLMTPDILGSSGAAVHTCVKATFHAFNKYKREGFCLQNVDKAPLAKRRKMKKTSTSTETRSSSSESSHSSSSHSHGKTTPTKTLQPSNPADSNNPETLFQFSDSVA

[15] = organism: Homo sapiens; assay: Selectivity index, ratio of Kd for N-terminal 6His-tagged active recombinant human spiked Akt3 S472D mutant (117 to end residues) to Kd for human recombinant PKACalpha
[16] = molecular target: T2, Aurora kinase A (Homo sapiens) (UniProt O14965); assay: Inhibition of N-terminal 6His-tagged active recombinant full length human Aurora A-mediated phosphorylation assessed as residual activity at 100 nM relative to control
T2 sequence (whole entry): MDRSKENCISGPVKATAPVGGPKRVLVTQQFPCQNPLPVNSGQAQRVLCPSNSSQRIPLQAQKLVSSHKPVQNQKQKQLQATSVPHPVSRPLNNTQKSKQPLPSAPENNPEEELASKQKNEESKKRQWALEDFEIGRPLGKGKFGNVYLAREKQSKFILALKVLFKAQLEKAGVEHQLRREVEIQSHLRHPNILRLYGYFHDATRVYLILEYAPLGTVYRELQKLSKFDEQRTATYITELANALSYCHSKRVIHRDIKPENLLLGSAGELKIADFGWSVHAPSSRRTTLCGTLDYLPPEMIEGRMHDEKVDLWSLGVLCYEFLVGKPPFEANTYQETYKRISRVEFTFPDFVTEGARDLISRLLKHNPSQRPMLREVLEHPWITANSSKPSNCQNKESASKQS

[17] = molecular target: Aurora kinase B (Homo sapiens) (UniProt Q96GD4); assay: Inhibition of N-terminal 6His-tagged active recombinant full length human Aurora B-mediated phosphorylation assessed as residual activity at 100 nM relative to control
Chain of Aurora kinase B (Homo sapiens) (Q96GD4 whole entry): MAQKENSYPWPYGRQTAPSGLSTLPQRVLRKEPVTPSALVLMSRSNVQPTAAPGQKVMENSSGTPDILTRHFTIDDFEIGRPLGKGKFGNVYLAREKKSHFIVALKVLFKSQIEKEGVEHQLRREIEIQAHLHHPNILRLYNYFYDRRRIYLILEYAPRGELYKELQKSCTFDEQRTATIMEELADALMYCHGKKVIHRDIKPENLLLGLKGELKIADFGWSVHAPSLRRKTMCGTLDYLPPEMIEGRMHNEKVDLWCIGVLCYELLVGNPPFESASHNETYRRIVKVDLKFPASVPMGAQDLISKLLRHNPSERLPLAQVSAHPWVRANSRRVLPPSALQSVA

[18] = molecular target: T1, cAMP-dependent protein kinase catalytic subunit alpha; assay: Inhibition of ARC-1063 fluorescent probe binding to recombinant human PKAC-alpha incubated for 22 hrs by time-gated luminescence intensity based displacement assay
[19] = molecular target: T1, cAMP-dependent protein kinase catalytic subunit alpha; assay: Irreversible inhibition of ARC-1063 fluorescent probe binding to recombinant human PKAC-alpha incubated for 22 hrs followed by probe addition at 20 nM and further incubated for 1 hr by time-gated luminescence intensity based displacement assay
[20] = GSH reactivity in potassium phosphate buffer at pH 7.4 assessed as half life at 0.15 mM at 30 degreeC measured for 30 to 60 mins by HPLC-MS analysis; format: physicochemical; conditions: potassium phosphate buffer with GSH, time 30-60 min
[21] = GSH reactivity in potassium phosphate buffer at pH 7.4 assessed as half life at 0.15 mM at 37 degreeC measured for 30 to 60 mins by HPLC-MS analysis; format: physicochemical; conditions: potassium phosphate buffer with GSH, time 30-60 min
[22] = Drug degradation in phosphate buffer at pH 7.4 assessed as half life at 0.15 mM at 30 degreeC measured for 30 to 60 mins by HPLC-MS analysis; format: ADME; conditions: time 30-60 min
[23] = Drug degradation in phosphate buffer at pH 7.4 assessed as half life at 0.15 mM at 37 degreeC measured for 30 to 60 mins by HPLC-MS analysis; format: ADME; conditions: time 30-60 min
[24] = molecular target: T1, cAMP-dependent protein kinase catalytic subunit alpha; assay: Binding affinity to human recombinant PKAC-alpha at Cys199 residue assessed as compound-protein adduct formation by measuring mass difference at 3.5 uM incubated for 2 hrs by LC-MS/MS analysis

IC50 [1] [nM] | Kd [2] [nM] | T1/2 [3] [min] | K [4] | Activity [5] | Kinact [6] | Kinact [7] | Ki [8] [nM] | T1/2 [9] [min] | also measured | Structure (SMILES)
5.6 | 0.0049 | 11.1 | 2.2 10^8/M/s | – | – | – | – | – | – | CC[C@H](C)[C@H](NC(=O)CCC(=O)N[C@@H](CCCCNC(=O)[C@@H](CCCNC(=N)N)NC(=O)CCCCCCCC(=O)N1CCN(c2ncnc3[nH]ccc23)CC1)C(=O)N[C@H](CCCNC(=N)N)C(=O)N[C@H](CCCNC(=N)N)C(=O)N[C@H](CCCNC(=N)N)C(N)=O)C(=O)NCC(C)=O
– | – | – | – | Tde | 5.1 10^-4/s | 4.2 10^-4/s | 0.0068 | – | – | CC[C@H](C)[C@H](NC(=O)CCC(=O)N[C@@H](CCCCNC(=O)[C@@H](CCCNC(=N)N)NC(=O)CCCCCCCC(=O)N1CCN(c2ncnc3[nH]ccc23)CC1)C(=O)N[C@H](CCCNC(=N)N)C(=O)N[C@H](CCCNC(=N)N)C(=O)N[C@H](CCCNC(=N)N)C(N)=O)C(=O)NCC(=O)CF
– | – | > 150 | – | Tde | 3.3 10^-5/s | – | 4.2 | 346 | – | CC[C@H](C)[C@H](NC(=O)CCC(=O)N[C@@H](CCCCNC(=O)[C@@H](CCCNC(=N)N)NC(=O)CCCCCCCC(=O)N1CCN(c2ncnc3[nH]ccc23)CC1)C(N)=O)C(=O)NCC(=O)CF
24 | 0.019 | 4.5 | 1.4 10^8/M/s | – | – | – | – | – | Activity [10]: 2%; Activity [11]: 8%; Activity [12]: 8%; Activity [13]: 9%; Activity [14]: 21%; Ratio [15]: 200; Activity [16]: 102%; Activity [17]: 93% | CC[C@H](C)[C@H](NC(=O)CCC(=O)N[C@@H](CCCCNC(=O)[C@@H](CCCNC(=N)N)NC(=O)CCCCCCCC(=O)N1CCN(c2ncnc3[nH]ccc23)CC1)C(=O)N[C@H](CCCNC(=N)N)C(=O)N[C@H](CCCNC(=N)N)C(N)=O)C(=O)NCC(C)=O
400 | – | – | – | – | – | – | – | – | IC50 [18]: 500 nM; IC50 [19]: 5300 nM | N=C(N)NCCC[C@@H](NC(=O)CCCCCNC(=O)[C@@H](CCCNC(=N)N)NC(=O)CCCCCCCC(=O)N1CCN(c2ncnc3[nH]ccc23)CC1)C(N)=O
– | – | 19 | – | Tde | 6.1 10^-4/s | 5.8 10^-4/s | 0.023 | 19.2 | half-life at 150 µM [20]: 44.4 min; half-life at 150 µM [21]: 22.2 min; half-life at 150 µM [22]: 78.6 min; half-life at 150 µM [23]: 57 min; Activity [24]: Active | CC[C@H](C)[C@H](NC(=O)CCC(=O)N[C@@H](CCCCNC(=O)[C@@H](CCCNC(=N)N)NC(=O)CCCCCCCC(=O)N1CCN(c2ncnc3[nH]ccc23)CC1)C(=O)N[C@H](CCCNC(=N)N)C(=O)N[C@H](CCCNC(=N)N)C(N)=O)C(=O)NCC(=O)CF
